Measurements published in patent US20190071490A1, “Preventing Post-Ictal Headaches” (Beth Israel Deaconess Medical Center, Inc., priority 2017, published 2019).

Tested on: skin blood flow after saphenous nerve stimulation (CGRP release)
Assay: Skin vasodilatation induced by stimulation of rat saphenous nerve
Type: in vivo
Conditions: 400 nmol/kg i.v., 3-5 minutes before stimulation, vs control
Experimental: To test antagonist activity of anti-CGRP antibodies, effect of the antibodies on skin vasodilatation by stimulation of rat saphenous nerve was tested using a rat model described previously. Escott et al., Br. J. Pharmacol. 110:772-776, 1993. In this rat model, electrical stimulation of saphenous nerve induces release of CGRP from nerve endings, resulting in an increase in skin blood flow. Blood flow in the foot skin of male Sprague Dawley rats (170-300 g, from Charles River Hollister) was measured after saphenous nerve stimulation. Rats were maintained under anesthesia with 2% isoflurane. Bretylium tosylate (30 mg/kg, administered i.v.) was given at the beginning of the experiment to minimize vasoconstriction due to the concomitant stimulation of sympathetic fibers of the saphenous nerve. […]
For experiments shown in FIGS. 2A and 2B, antibody 4901 (25 mg/kg), antibody 7D11 (25 mg/kg), or vehicle control (PBS with 0.01% Tween 20) was administered intraperitoneally (IP) 72 hours before the electrical pulse stimulation. […] Skin blood flow, measured as blood cell flux, was monitored with a laser Doppler flow meter. […]
For experiments shown in FIGS. 4A and 4B, saphenous nerve was exposed surgically before antibody administration. […] Skin blood flow, measured as blood cell flux, was monitored with a laser Doppler flow meter. […]

Substance: CGRP 8-37: Positive control compound CGRP 8-37 (vasodilatation antagonist)
- blood flow increase stimulated by electronic pulses on saphenous nerve (AUC of blood cell flux): inhibited
